{"source": "paper PMC10518010", "about": "“The leaderless communication peptide (LCP) class of quorum-sensing peptides is broadly distributed among Firmicutes” (Nature Communications, 2023)", "key": {"[1]": {"test_system": "WT S. salivarius", "conditions": "30 min, fluorescence and microscopy", "text": "Cells were harvested by centrifugation, and washed three times with sterile PBS. Cells were fixed on the coverslip using 1% glutaraldehyde and 3% formaldehyde. The images were taken using a Nikon Eclipse TiN-STORM super resolution microscope equipped with iXon3 897 EM-CCD camera."}, "[2]": {"test_system": "specific DNA/promoter sequences", "conditions": "peer review response; ref \"our detailed published findings\"; cited from earlier work", "source_text": "page 13: not provide the desired explanation for the differences in the binding sites of both receptors. Consequently, we provided analyses and explanation in the previous version that is supported by the data and meaningful. - Regarding this point, it has recently been published that RopB-GAS might act as a repressor and not as a transcriptional activator (DOI: 10.26508/lsa.202201809), as the authors show for RopBss. Could this fact explain the differences in their binding sites? Perhaps this point would be interesting to discuss in the manuscript. RESPONSE: We are aware of this study. Howeve ..."}, "[3]": {"test_system": "secreted cysteine protease SpeB", "conditions": "S. pyogenes; cited from earlier work", "source_text": "(§1) Recently, we discovered a new class of leaderless communication peptide (LCP) in human pathogen Streptococcus pyogenes that controls bacterial virulence (Fig. 1a)[10]. Contrary to characterized bacterial peptide signals, the LCP, known as SpeB-inducing peptide (SIP), is synthesized from a 24 base pair ultrasmall open reading frame (usORF) encoding a mature 8 amino acid peptide without the amino acid sequences required for secretion and processing. Consistent with the lack of hallmarks of bacterial peptide signals, the canonical machineries required for the export and import of qs peptides ..."}, "[4]": {"test_system": "bacterial virulence in animal models of infection", "conditions": "cited from earlier work", "source_text": "as §1"}, "[5]": {"test_system": "RopB", "conditions": "S. pyogenes; cited from earlier work", "source_text": "as §1"}, "[6]": {"target": "FITC-labeled synthetic LCPss (S. salivarius)", "assay": "fluorescence polarisation; purified RopBss titrated against FITC-labeled LCPss; 20 mM potassium phosphate pH 6.0, 75 mM NaCl, 2% DMSO, 1 mM EDTA, 0.0005% Tween 20"}}, "note": "Where a SMILES comes first, the peptide text is derived from it. The star is where a group is joined. FITC = O=C1OC2(c3ccc(O)cc3Oc3cc(O)ccc32)c2ccc(NC(=S)*)cc21"}
{"molecule": "CC[C@H](C)[C@H](NC(=O)[C@H](CC(C)C)NC(=O)[C@H](Cc1c[nH]c2ccccc12)NC(=O)[C@H](CCSC)NC(=S)Nc1ccc2c(c1)C(=O)OC21c2ccc(O)cc2Oc2cc(O)ccc21)C(=O)N[C@@H](CC(C)C)C(=O)N[C@@H](CC(C)C)C(=O)N[C@@H](Cc1ccccc1)C(=O)N[C@@H](CC(C)C)C(=O)O", "note": "[FITC-LCPss] ({FITC}-MWLILLFL-OH)", "values": [{"measurement": "Internalization of exogenously added peptide (in words)", "setting": "[1]", "value": "internalization of the exogenously added FITC-labeled synthetic LCPss"}]}
{"molecule": "MWLLLLFL [SIP, SpeB-inducing peptide of Streptococcus pyogenes, mature 8 amino acid peptide]", "values": [{"measurement": "RopB binding to promoter sequences in the presence of SIP (in words)", "setting": "[2]", "value": "with high affinity only in the presence of SIP"}, {"measurement": "SpeB regulation (in words)", "setting": "[3]", "value": "upregulation of an adjacently located virulence factor, a secreted cysteine protease SpeB"}, {"measurement": "Bacterial virulence (in words)", "setting": "[4]", "value": "increased bacterial virulence in animal models of infection"}, {"measurement": "Binding to RopB (in words)", "setting": "[5]", "value": "binds to a RRNPPA-family transcription activator, Regulator of Protease B (RopB)"}]}
{"molecule": "RopBss (RopB homolog, cytosolic LCP receptor of Streptococcus salivarius)", "values": [{"measurement": "Kd", "setting": "[6]", "value": 8, "unit": "nM"}]}
